Assay results from patent US9062048B2, “Cyclohexyl-azetidinyl antagonists of CCR2” (Janssen Pharmaceutica NV, priority 2010, dated 2015).

Target: CCR2 (Homo sapiens (Human), UniProt P41597)
Assay: MCP-1 Receptor Binding Assay in THP-1 Cells;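 note: THP-1 is a human monocytic cell line, and nonspecific binding was defined with 1 µM unlabeled MCP-1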
Conditions: 0.5 nM 125I labeled MCP-1, 2 hours at 30° C., read-out: Inhibition of MCP-1 Binding IC50 MCP1B

Chain of CCR2 (P41597 whole entry): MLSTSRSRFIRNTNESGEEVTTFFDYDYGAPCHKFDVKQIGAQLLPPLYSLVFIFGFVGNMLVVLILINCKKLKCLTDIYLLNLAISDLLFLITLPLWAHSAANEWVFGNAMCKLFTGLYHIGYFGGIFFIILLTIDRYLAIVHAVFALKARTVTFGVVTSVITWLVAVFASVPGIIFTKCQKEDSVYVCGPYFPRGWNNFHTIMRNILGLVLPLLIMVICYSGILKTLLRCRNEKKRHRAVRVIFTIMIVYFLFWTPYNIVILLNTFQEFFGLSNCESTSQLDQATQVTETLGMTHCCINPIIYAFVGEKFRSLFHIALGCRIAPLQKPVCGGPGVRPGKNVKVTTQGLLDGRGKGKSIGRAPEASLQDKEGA

SMILES | IC50 [nM]
CC(C)(C)OC(=O)NC1CCC(N2CC(NC(=O)CNc3ncnc4ccc(C(F)(F)F)cc34)C2)CC1 (centres unmarked) [Example 125, tert-butyl (4-(3-(2-((6-(trifluoromethyl)quinazolin-4-yl)amino)acetamido)azetidin-1-yl)cyclohexyl)carbamate] | 220
O=C(CNc1ncnc2ccc(C(F)(F)F)cc12)NC1CN([C@H]2CC[C@@H](N3CCS(=O)(=O)CC3)CC2)C1 [Example 134, N-(1-((1s,4s)-4-(1,1-dioxidothiomorpholino)cyclohexyl)azetidin-3-yl)-2-((6-(trifluoromethyl)quinazolin-4-yl)amino)acetamide] | 72
CCN(C(C)=O)[C@H]1CC[C@@H](N2CC(NC(=O)CNc3ncnc4ccc(C(F)(F)F)cc34)C2)CC1 [Example 50] | 810
CCOC(=O)CC1CCC(N2CC(NC(=O)CNc3ncnc4ccc(C(F)(F)F)cc34)C2)CC1 (centres unmarked) [Example 122] | 120
CCC(N)[C@H]1CC[C@@H](N2CC(NC(=O)CNc3ncnc4ccc(C(F)(F)F)cc34)C2)CC1 (stereo partly drawn) [Example 136, N-(1-((1R,4s)-4-((S)-1-aminopropyl)cyclohexyl)azetidin-3-yl)-2-((6-(trifluoromethyl)quinazolin-4-yl)amino)acetamide] | 40
[2H][C@]1(N2CC(NC(=O)CNc3ncnc4ccc(C(F)(F)F)cc34)C2)CC[C@@H](C(C)C)CC1 [Example 118, N-(1-deutero-1-((1s,4s)-4-isopropylcyclohexyl)azetidin-3-yl)-2-((6-(trifluoromethyl)quinazolin-4-yl)amino)acetamide] | 85
CNc1cnccc1C1CCC(N2CC(NC(=O)CNc3ncnc4ccc(C(F)(F)F)cc34)C2)CC1 (centres unmarked) [Example 74, N-(1-(4-(3-(methylamino)pyridin-4-yl)cyclohexyl)azetidin-3-yl)-2-((6-(trifluoromethyl)quinazolin-4-yl)amino)acetamide] | 130
CC[C@@H](O)C1CCC(N2CC(NC(=O)CNc3nccc4ccc(C(F)(F)F)cc34)C2)CC1 (stereo partly drawn) [Example 167, N-(1-((1R,4s)-4-(1-hydroxypropyl)cyclohexyl)azetidin-3-yl)-2-((7-(trifluoromethyl)isoquinolin-1-yl)amino)acetamide] | 44
CC(C)[C@H](O)C1CCC(N2CC(NC(=O)CNc3ncnc4ccc(C(F)(F)F)cc34)C2)CC1 (single isomer, unassigned; (-)) [(−) 8] | 10
O=C1CCC(N2CC(NC(=O)CNc3ncnc4ccc(C(F)(F)F)cc34)C2)CC1 [Example 103, N-(1-(4-oxocyclohexyl)azetidin-3-yl)-2-((6-(trifluoromethyl)quinazolin-4-yl)amino)acetamide] | 530
O=C(CNc1ncnc2ccc(C(F)(F)F)cc12)NC1CN(C2CCC(C(F)(F)F)CC2)C1 (centres unmarked) [Example 123, N-(1-(4-(trifluoromethyl)cyclohexyl)azetidin-3-yl)-2-((6-(trifluoromethyl)quinazolin-4-yl)amino)acetamide] | 130
C=CCC(O)(CC=C)[C@H]1CC[C@@H](N2CC(NC(=O)CNc3ncnc4ccc(C(F)(F)F)cc34)C2)CC1 [Example 31, N-(1-((1s,4s)-4-(4-hydroxyhepta-1,6-dien-4-yl)cyclohexyl)azetidin-3-yl)-2-((6-(trifluoromethyl)quinazolin-4-yl)amino)acetamide] | 300
O=C(CNc1ncnc2ccc(C(F)(F)F)cc12)NC1CN([C@H]2CC[C@@H](O)CC2)C1 [Example 110, N-(1-((1s,4s)-4-hydroxycyclohexyl)azetidin-3-yl)-2-((6-(trifluoromethyl)quinazolin-4-yl)amino)acetamide] | 68
C=CC(O)[C@H]1CC[C@@H](N2CC(NC(=O)CNc3ncnc4ccc(C(F)(F)F)cc34)C2)CC1 (stereo partly drawn) [Example 92, N-(1-((1S,4s)-4-(1-hydroxyallyl)cyclohexyl)azetidin-3-yl)-2-((6-(trifluoromethyl)quinazolin-4-yl)amino)acetamide] | 16
C=C(C)C(O)[C@H]1CC[C@@H](N2CC(NC(=O)CNc3ncnc4ccc(C(F)(F)F)cc34)C2)CC1 (stereo partly drawn) [Example 96, N-(1-((1R,4s)-4-(1-hydroxy-2-methylallyl)cyclohexyl)azetidin-3-yl)-2-((6-(trifluoromethyl)quinazolin-4-yl)amino)acetamide] | 75
CC(C)(C)OC(=O)NC[C@H]1CC[C@@H](N2CC(NC(=O)CNc3ncnc4ccc(C(F)(F)F)cc34)C2)CC1 [Example 113, tert-butyl (((1s,4s)-4-(3-(2-((6-(trifluoromethyl)quinazolin-4-yl)amino)acetamido)azetidin-1-yl)cyclohexyl)methyl)carbamate] | 120

SMILES | IC50 [nM]
O=C(CNc1ncnc2ccc(C(F)(F)F)cc12)NC1CN([C@H]2CC[C@@H](N3CCCCO3)CC2)C1 [Example 52, N-(1-((1s,4s)-4-(1,2-oxazinan-2-yl)cyclohexyl)azetidin-3-yl)-2-((6-(trifluoromethyl)quinazolin-4-yl)amino)acetamide] | 64
CC(C)[C@H](O)C1CCC(N2CC(NC(=O)CNc3ncnc4ccc(C(F)(F)F)cc34)C2)CC1 (single isomer, unassigned; (+)) [(+) 8] | 44
O=C(CNc1ncnc2ccc(C(F)(F)F)cc12)NC1CN(C2CCC(c3ncccc3O)CC2)C1 (centres unmarked) [Example 1, N-(1-(4-(3-hydroxypyridin-2-yl)cyclohexyl)azetidin-3-yl)-2-((6-(trifluoromethyl)quinazolin-4-yl)amino)acetamide] | 4
CCC(OC(C)=O)[C@H]1CC[C@@H](N2CC(NC(=O)CNc3ncnc4ccc(C(F)(F)F)cc34)C2)CC1 (stereo partly drawn) [Example 100, 1-((1s,4S)-4-(3-(2-((6-(trifluoromethyl)quinazolin-4-yl)amino)acetamido)azetidin-1-yl)cyclohexyl)propyl acetate] | 28
CCCN(C=O)[C@H]1CC[C@@H](N2CC(NC(=O)CNc3ncnc4ccc(C(F)(F)F)cc34)C2)CC1 [Example 51, N-(1-((1s,4s)-4-(N-propylformamido)cyclohexyl)azetidin-3-yl)-2-((6-(trifluoromethyl)quinazolin-4-yl)amino)acetamide] | 37
CCCC(O)(CCC)[C@H]1CC[C@@H](N2CC(NC(=O)CNc3ncnc4ccc(C(F)(F)F)cc34)C2)CC1 [Example 32, N-(1-((1s,4s)-4-(4-hydroxyheptan-4-yl)cyclohexyl)azetidin-3-yl)-2-((6-(trifluoromethyl)quinazolin-4-yl)amino)acetamide] | 690
O=C(CNc1ncnc2ccc(C(F)(F)F)cc12)NC1CN([C@H]2CC[C@@H](C(O)C(F)(F)F)CC2)C1 (stereo partly drawn) [Example 34, N-(1-((1R,4s)-4-(2,2,2-trifluoro-1-hydroxyethyl)cyclohexyl)azetidin-3-yl)-2-((6-(trifluoromethyl)quinazolin-4-yl)amino)acetamide] | 73
O=C(CNc1ncnc2ccc(C(F)(F)F)cc12)NC1CN([C@H]2CC[C@@H](C(O)C3CC3)CC2)C1 (stereo partly drawn) [Example 3, N-(1-((1S,4s)-4-(cyclopropyl(hydroxy)methyl)cyclohexyl)azetidin-3-yl)-2-((6-(trifluoromethyl)quinazolin-4-yl)amino)acetamide] | 22
COCC(O)[C@H]1CC[C@@H](N2CC(NC(=O)CNc3ncnc4ccc(C(F)(F)F)cc34)C2)CC1 (stereo partly drawn) [Example 20, N-(1-((1S,4s)-4-(1-hydroxy-2-methoxyethyl)cyclohexyl)azetidin-3-yl)-2-((6-(trifluoromethyl)quinazolin-4-yl)amino)acetamide] | 58
CC[C@@H](O)[C@H]1CC[C@@H](N2CC(NC(=O)CNc3nccc4ncc(C(F)(F)F)cc34)C2)CC1 (stereo in doubt) [Example 150, N-(1-((1R,4s)-4-((S)-1-hydroxypropyl)cyclohexyl)azetidin-3-yl)-2-((3-(trifluoromethyl)-1,6-naphthyridin-5-yl)amino)acetamide] | 430
CC(C)[C@@H](O)[C@H]1CC[C@H](N2CC(NC(=O)CNc3cnnc4ccc(C(F)(F)F)cc34)C2)CC1 (racemic) [Example 158, N-(1-((1R,4r)-4-((R)-1-hydroxy-2-methylpropyl)cyclohexyl)azetidin-3-yl)-2-((6-(trifluoromethyl)cinnolin-4-yl)amino)acetamide] | 2560
NC(=O)c1cc(NCC(=O)NC2CN([C@H]3CC[C@@](O)(c4cncs4)CC3)C2)c2cc(C(F)(F)F)ccc2n1 [Example 62] | 9
O=C(CNc1ncnc2ccc(C(F)(F)F)cc12)NC1CN([C@H]2CC[C@@H](C3CC=CCO3)CC2)C1 (stereo partly drawn) [Example 2, N-(1-((1S,4s)-4-(−3,6-dihydro-2H-pyran-2-yl)cyclohexyl)azetidin-3-yl)-2-((6-(trifluoromethyl)quinazolin-4-yl)amino)acetamide and N-(1-((1S,4r)-4-(3,6-dihydro-2H-pyran-2-yl)cyclohexyl)azetidin-3-yl)-2((6-(trifluoromethyl)quinazolin-4-yl)amino)acetamide] | 5
CCC(NC(C)=O)[C@H]1CC[C@@H](N2CC(NC(=O)CNc3ncnc4ccc(C(F)(F)F)cc34)C2)CC1 (stereo partly drawn) [Example 138, N-(1-((1R,4s)-4-((S)-1-acetamidopropyl)cyclohexyl)azetidin-3-yl)-2-((6-(trifluoromethyl)quinazolin-4-yl)amino)acetamide] | 1900
C=C(C)[C@H]1CC[C@@H](N2CC(NC(=O)CNc3ncnc4ccc(C(F)(F)F)cc34)C2)CC1 [Example 36, N-(1-((1s,4s)-4-(prop-1-en-2-yl)cyclohexyl)azetidin-3-yl)-2-((6-(trifluoromethyl)quinazolin-4-yl)amino)acetamide] | 75
C=C[C@H]1CC[C@@H](N2CC(NC(=O)CNc3ncnc4ccc(C(F)(F)F)cc34)C2)CC1 [Example 9, 2-((6-(trifluoromethyl)quinazolin-4-yl)amino)-N-(1-((1s,4s)-4-vinylcyclohexyl)azetidin-3-yl)acetamide and 2-((6-(trifluoromethyl)quinazolin-4-yl)amino)-N-(1-((1r,4r)-4-vinylcyclohexyl)azetidin-3-yl)acetamide] | 9
